Assay [1] deals with PDCs and allogeneic naive CD4+ T cells. Put plainly: In vitro priming of naive CD4+ T cells by allogeneic PDCs: CD4+CD25+Foxp3+ Treg generation (flow cytometry). It is filed as cell-based, human. The following applies: added to CpG ODN-PDC/naive CD4+ T cell priming cultures; day 7; 1MT 250 μM, Abs 0.1-10 μg/ml. From the text: PDC, B, and T cell isolation. Human PBMC were isolated under IRE-approved protocols from apheresis products of healthy blood donors (Memorial Blood Centers of Minnesota, Minneapolis, Minn.) by Ficoll-Paque density gradient centrifugation. Plasmascytoid dendritic cells (PDCs) were isolated from PBMC using BDCA-4 cell isolation kits and the MACS system, followed by staining and sorting to collect purified Lin-CD11c-CD123+ PDCs, as reported previously (Moseman et al., J Immunol 2004; 173:4433-4442). […] cells were isolated from PBMC using CD4 T cell isolation kits followed by positive selection with CD45RA microbeads. […] B cells were isolated from PBMC with CD19 microbeads and the MACS system to greater than 98% purity of CD19+ B cells. All cell isolations kits and microbeads were from Miltenyi Biotec (Bergisch Gladbach, Germany). Reagents. Phosphorothioate-modified type-A CpG ODN 2216: […] NO:2), type-B CpG ODN 2006: […] NO:3) (sequences are shown 5'-3'; small letters represent phosphorothioate linkage; capital letters represent phosphodiester linkage 3' of the base; bold represents CpGdinucleotides) were from Integrated DNA Technologies (Coralville, Iowa), diluted in PBS, and used at a final concentration of 1 microgran per milliliter (μg/ml). […] Kynurenine (L-KYN, Sigma-Aldrich) was used at a final concentration of 50 μM. In vitro priming of naive CD4+ T cells. CD4+CD45RA+ naive T cells were primed with allogeneic PDCs or irradiated B cells (30 Gy) at a 10:1 ratio (e.g., 2×10^6 naive CD4+ T cells plus 2×105 PDCs per well in 24-well plates) with ODN 2216 or ODN 2006 present in RPMI 1640 medium supplemented with 10% human AB serum. 1 MT and/or KYN were added into CpG ODN-PDC or CpG ODN-B cell mediated naive CD4+ T cell priming cultures as indicated. […] After 7 days, primed T cells in cultures were harvested, assessed for their surface phenotype, intracellular Foxp3 expression, and their function in MLR assays. […] Mean fluorescence intensity (MFI) and positive cell percentages of stained cells were determined by flow cytometry.

The subject of assay [2] is PDCs. As to the kind of experiment: Surface expression of CD80, CD86, HLA-DR on PDCs (flow cytometry). It is filed as cell-based, human. The following applies: 1MT added to priming MLRs with CpG ODN. From the text: PDC, B, and T cell isolation. Human PBMC were isolated under IRE-approved protocols from apheresis products of healthy blood donors (Memorial Blood Centers of Minnesota, Minneapolis, Minn.) by Ficoll-Paque density gradient centrifugation. Plasmascytoid dendritic cells (PDCs) were isolated from PBMC using BDCA-4 cell isolation kits and the MACS system, followed by staining and sorting to collect purified Lin-CD11c-CD123+ PDCs, as reported previously (Moseman et al., J Immunol 2004; 173:4433-4442). CD4+CD45RA+ naïve T cells were isolated from PBMC using CD4 T cell isolation kits followed by positive selection with CD45RA microbeads. The purity of naïve CD4+ T cells was greater than 95% for CD4+CD45RA+ expression and less than 0.5% for CD25+ expression. B cells were isolated from PBMC with CD19 microbeads and the MACS system to greater than 98% purity of CD19+ B cells. All cell isolations kits and microbeads were from Miltenyi Biotec (Bergisch Gladbach, Germany).
Flow Cytometry. Fluorescent antibodies (Abs) against human CD3, CD4, CD11c, CD19, CD25, CD40, CD45, CD45RA, CD45RO, CD80, CD86, CD123, HLA-DR, lineage (Lin) markers, and isotype control Abs were from BD Biosciences (San Diego, Calif.). […] Mean fluorescence intensity (MFI) and positive cell percentages of stained cells were determined by flow cytometry.
(In general: In flow cytometry, cells or beads pass a laser one at a time.)

In assay [3] the test system is BM3 T cells. Put plainly: Ex vivo T cell suppression assays with sorted Tregs from treated mice. In kind it is in vivo, mouse. On the procedure:
CpG Oligonucleotides. CpG-ODNs (CpG no. 1826, […]; (SEQ ID NO:4) and sequence matched non-CpG-B no. 2138, […] (SEQ ID NO:5)) with fully phosphorothioate backbones were purchased from Coley Pharmaceuticals. Mice were injected with relatively high doses of ODNs (50 μg/mouse, i/v) as described (Mellor et al. J Immunol 2005; 175:5601-5605).
1-methyl-[D]-tryptophan (1 mT). 1 mT (catalog number 45, 248-3, Sigma) was prepared as a 20 mM stock solution in 0.1 N NaOH, adjusted to pH 7.4, and stored at −20° C. protected from light. For in vitro use, 1 mT was added to MLRs to a final concentration of 100 μM. For in vivo treatment, slow-release polymer pellets (*5 mg/day) containing 1 mT or vehicle alone were inserted under the dorsal skin as described (Munn et al. Science 1998; 281:1191-1193) 24 hours before CpG treatment.
Preparative flow cytometry to sort CD4+ T cells subsets. CD4+ T cell subsets were purified using a Mo-Flo cytometer as described (Mellor et al. J Immunol 2005; 175:5601-5605; Munn et al. Immunity 2005; 22:1-10).
Ex vivo T cell suppression assays. Suppression assays were performed by adding sorted CD4+ cells to T cell proliferation assays (72 hour thymidine incorporation assays) containing responder H-2K^b-specific splenocytes from BM3 TCR transgenic mice (nylon-wool enriched) and CD11c+ splenocytes (AutoMacs enriched) from CBK (H-2K^b transgenic CBA) mice prepared as described (Mellor et al. J Immunol 2005; 175:5601-5605).

Take `Cn1cc(C[C@@H](N)C(=O)O)c2ccccc21` [Inhibitor 1MT, 1-methyl-D-tryptophan]: the “PDC-induced CD4+CD25+Foxp3+ Treg generation, effect of added agent” value in assay [1] is recorded as “significantly reduced”. For the same molecule, the “expression of cell surface maturation markers by PDCs (CD80, CD86, HLA-DR)” value in assay [2] is recorded as “insignificant effects”. Further, the “reversal of Treg-mediated suppression by IDO inhibitor added to parallel cultures” value in assay [3] (100 μM in culture, Tregs from CpG-treated mice) is given as “did not reverse suppression”. Moreover, the “CpG-mediated stimulation of Treg suppressive functions, IDO inhibitor given to Treg donor mice” value in assay [3] (slow-release pellets 24 hours before CpG, IDO-WT mice) is “prevented CpG-mediated stimulation of Treg suppressive functions”.

(Values after US20120142750A1, “INDOLEAMINE 2,3-DIOXYGENASE PATHWAYS IN THE GENERATION OF REGULATORY T CELLS” (Regents of the University of Minnesota, priority 2005, published 2012).)
